Measured values from ChEMBL document CHEMBL4422615, “Novel non-xanthine antagonist of the A2B adenosine receptor: From HTS hit to lead structure” (Eur J Med Chem, 2019).

Key:
Adenosine receptor A2b [1] = biological target: T1, Adenosine receptor A2b (Homo sapiens, UniProt P29275); assay: Displacement of [3H]DPCPX from human A2B adenosine receptor expressed in HEK293 cell membranes after 60 mins by radioligand displacement assay
T1 sequence (P29275 whole entry): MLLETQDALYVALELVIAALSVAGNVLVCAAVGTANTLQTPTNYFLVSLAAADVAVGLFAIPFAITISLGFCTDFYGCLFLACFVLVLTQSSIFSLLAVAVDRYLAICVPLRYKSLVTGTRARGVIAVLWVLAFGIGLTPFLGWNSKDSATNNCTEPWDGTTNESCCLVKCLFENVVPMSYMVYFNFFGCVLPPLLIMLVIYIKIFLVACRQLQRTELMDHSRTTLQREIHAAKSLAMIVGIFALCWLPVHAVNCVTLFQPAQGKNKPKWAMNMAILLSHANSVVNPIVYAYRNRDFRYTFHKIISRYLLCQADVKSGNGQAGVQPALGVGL

Homo sapiens [2] = species: Homo sapiens; assay: Selectivity index, ratio of IC50 for human A1 adenosine receptor expressed in CHO cell membranes to IC50 for human A2B adenosine receptor expressed in HEK293 cell membranes; type: cell-based
Homo sapiens [3] = species: Homo sapiens; assay: Selectivity index, ratio of IC50 for human A2A adenosine receptor expressed in HEK293 cell membranes to IC50 for human A2B adenosine receptor expressed in HEK293 cell membranes; type: cell-based
Homo sapiens [4] = species: Homo sapiens; assay: Selectivity index, ratio of IC50 for human A3 adenosine receptor expressed in HEK293 cell membranes to IC50 for human A2B adenosine receptor expressed in HEK293 cell membranes; type: cell-based
[5] = Intrinsic clearance in rat hepatocytes by MS/MS analysis; type: ADME, cell-based, Hepatocyte; conditions: for predicted hepatic clearance: read-out: CLH (converted)
Cytochrome P450 1A2 = biological target: T2, Cytochrome P450 1A2 (Homo sapiens, UniProt P05177); assay: Inhibition of CYP1A2 in human liver microsomes using phenacetin as substrate after 15 mins in presence of NADPH by LC-MS/MS analysis; type: ADME
T2 sequence (P05177 whole entry): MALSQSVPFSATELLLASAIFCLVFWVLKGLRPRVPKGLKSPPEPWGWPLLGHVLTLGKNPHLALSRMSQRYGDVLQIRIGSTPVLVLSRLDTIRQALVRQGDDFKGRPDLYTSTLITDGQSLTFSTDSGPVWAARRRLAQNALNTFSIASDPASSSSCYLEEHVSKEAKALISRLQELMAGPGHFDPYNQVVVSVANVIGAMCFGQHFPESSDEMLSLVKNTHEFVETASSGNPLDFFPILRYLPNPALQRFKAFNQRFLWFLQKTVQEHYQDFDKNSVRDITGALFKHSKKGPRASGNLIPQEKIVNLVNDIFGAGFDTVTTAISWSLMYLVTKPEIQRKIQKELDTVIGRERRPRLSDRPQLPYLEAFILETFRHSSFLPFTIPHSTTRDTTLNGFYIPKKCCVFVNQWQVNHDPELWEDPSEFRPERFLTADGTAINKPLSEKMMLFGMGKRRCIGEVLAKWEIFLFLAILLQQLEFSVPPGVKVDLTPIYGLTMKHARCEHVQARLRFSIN

Cytochrome P450 2C8 = biological target: T3, Cytochrome P450 2C8 (Homo sapiens, UniProt P10632); assay: Inhibition of CYP2C8 in human liver microsomes using amodiaquine as substrate after 15 mins in presence of NADPH by LC-MS/MS analysis; type: ADME
T3 sequence (P10632 whole entry): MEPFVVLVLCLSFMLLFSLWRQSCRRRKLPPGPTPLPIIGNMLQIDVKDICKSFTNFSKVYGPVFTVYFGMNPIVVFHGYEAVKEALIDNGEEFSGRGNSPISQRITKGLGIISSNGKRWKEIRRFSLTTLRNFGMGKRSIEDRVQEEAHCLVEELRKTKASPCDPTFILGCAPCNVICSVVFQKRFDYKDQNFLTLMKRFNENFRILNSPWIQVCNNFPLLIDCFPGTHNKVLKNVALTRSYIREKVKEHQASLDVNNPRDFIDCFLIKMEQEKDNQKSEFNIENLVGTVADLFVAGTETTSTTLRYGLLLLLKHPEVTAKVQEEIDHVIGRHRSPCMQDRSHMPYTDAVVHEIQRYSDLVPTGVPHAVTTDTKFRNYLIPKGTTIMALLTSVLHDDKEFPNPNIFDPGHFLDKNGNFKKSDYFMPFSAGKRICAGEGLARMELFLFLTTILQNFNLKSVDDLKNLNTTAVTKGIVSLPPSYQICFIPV

Cytochrome P450 2C9 = Cytochrome P450 2C9 (Homo sapiens, UniProt P11712); assay: Inhibition of CYP2C9 in human liver microsomes using diclofenac as substrate after 15 mins in presence of NADPH by LC-MS/MS analysis; type: ADME
Cytochrome P450 2C9, sequence (P11712 whole entry): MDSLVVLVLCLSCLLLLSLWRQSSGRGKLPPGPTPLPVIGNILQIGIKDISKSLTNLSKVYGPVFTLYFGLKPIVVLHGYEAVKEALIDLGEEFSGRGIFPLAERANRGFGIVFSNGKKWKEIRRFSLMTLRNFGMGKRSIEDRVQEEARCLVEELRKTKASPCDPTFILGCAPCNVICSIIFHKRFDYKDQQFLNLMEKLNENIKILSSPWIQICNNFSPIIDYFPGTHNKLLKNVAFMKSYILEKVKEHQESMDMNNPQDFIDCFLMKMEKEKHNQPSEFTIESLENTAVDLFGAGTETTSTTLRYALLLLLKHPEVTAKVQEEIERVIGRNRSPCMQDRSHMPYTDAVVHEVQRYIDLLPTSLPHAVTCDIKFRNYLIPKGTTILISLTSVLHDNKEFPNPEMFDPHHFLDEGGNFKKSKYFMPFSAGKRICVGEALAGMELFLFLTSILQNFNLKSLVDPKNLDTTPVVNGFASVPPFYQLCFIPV

Cytochrome P450 2D6 = Cytochrome P450 2D6 (Homo sapiens, UniProt P10635); assay: Inhibition of CYP2D6 in human liver microsomes using dextromethorphan as substrate after 15 mins in presence of NADPH by LC-MS/MS analysis; type: ADME
Cytochrome P450 2D6, sequence (P10635 whole entry): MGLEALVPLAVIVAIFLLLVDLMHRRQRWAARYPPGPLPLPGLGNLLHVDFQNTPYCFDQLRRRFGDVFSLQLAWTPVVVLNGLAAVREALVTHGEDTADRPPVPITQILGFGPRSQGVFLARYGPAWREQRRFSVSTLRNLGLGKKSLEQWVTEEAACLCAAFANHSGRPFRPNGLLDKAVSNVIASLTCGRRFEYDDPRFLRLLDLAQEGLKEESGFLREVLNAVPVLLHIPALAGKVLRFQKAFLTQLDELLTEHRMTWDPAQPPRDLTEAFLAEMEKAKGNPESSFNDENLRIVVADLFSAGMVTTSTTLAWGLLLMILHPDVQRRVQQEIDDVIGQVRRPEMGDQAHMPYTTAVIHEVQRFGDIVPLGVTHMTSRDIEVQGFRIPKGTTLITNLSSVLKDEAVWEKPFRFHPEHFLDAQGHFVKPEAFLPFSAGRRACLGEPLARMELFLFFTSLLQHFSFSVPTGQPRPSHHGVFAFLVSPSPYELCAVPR

Cytochrome P450 3A4 [6] = biological target: T4, Cytochrome P450 3A4 (Homo sapiens, UniProt P08684); assay: Inhibition of CYP3A4 in human liver microsomes using midazolam as substrate preincubated for 30 mins followed by substrate addition measured after 10 mins in presence of NADPH by LC-MS/MS analysis; type: ADME
T4 sequence (P08684 whole entry): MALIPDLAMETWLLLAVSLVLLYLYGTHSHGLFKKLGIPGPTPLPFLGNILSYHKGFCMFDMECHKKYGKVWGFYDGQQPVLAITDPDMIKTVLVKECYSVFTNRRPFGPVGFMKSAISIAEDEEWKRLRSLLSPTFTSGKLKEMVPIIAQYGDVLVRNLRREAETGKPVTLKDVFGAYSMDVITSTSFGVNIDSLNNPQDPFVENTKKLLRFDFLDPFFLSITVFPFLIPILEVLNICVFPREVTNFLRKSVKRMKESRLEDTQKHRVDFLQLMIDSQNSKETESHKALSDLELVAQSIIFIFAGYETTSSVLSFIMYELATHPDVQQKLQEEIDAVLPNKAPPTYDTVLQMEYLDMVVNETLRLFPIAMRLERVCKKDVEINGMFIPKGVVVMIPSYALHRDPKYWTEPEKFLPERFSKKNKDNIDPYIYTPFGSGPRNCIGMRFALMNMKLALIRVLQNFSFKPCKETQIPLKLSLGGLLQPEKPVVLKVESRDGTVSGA

Cytochrome P450 3A4 [7] = biological target: T4, Cytochrome P450 3A4; assay: Time dependent inhibition of human liver microsomes CYP3A4 using midazolam as substrate in presence of NADPH by LC-MS/MS analysis; type: ADME
[8] = Blood clearance in mouse by measuring intrinsic clearance in mouse liver microsomes by MS/MS analysis; type: ADME
[9] = Blood clearance in rat by measuring Intrinsic clearance in rat hepatocytes by MS/MS analysis; type: ADME, cell-based
[10] = Apparent permeability from apical side to basolateral side in human Caco2 cells; type: ADME, cell-based; conditions: Caco-2
[11] = Efflux ratio in human Caco2 cells; type: ADME, cell-based; conditions: Caco-2
[12] = biological target: T5, Nuclear receptor subfamily 1 group I member 2 (Homo sapiens, UniProt O75469); assay: Activation of PXR in human HepG2 cells assessed as induction of CYP3A4 expression by luciferase reporter gene assay; type: ADME, cell-based
T5 sequence (O75469 whole entry): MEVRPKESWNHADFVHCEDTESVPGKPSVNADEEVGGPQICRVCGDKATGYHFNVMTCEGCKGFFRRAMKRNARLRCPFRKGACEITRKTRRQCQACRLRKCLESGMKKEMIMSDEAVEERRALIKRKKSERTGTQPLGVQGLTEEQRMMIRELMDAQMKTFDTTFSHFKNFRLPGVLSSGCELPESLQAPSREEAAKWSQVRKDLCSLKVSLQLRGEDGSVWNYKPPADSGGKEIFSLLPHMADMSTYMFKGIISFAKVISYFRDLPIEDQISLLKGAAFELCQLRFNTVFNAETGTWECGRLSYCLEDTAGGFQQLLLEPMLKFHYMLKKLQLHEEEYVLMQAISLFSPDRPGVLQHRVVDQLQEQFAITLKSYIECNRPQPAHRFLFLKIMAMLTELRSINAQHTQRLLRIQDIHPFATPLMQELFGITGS

PXR = biological target: T6, PXR (Homo sapiens, UniProt O75469); assay: Activation of PXR in human HepG2 cells assessed as induction of CYP3A4 expression at 2 x 10^-9 to 50 x 10^-6 mol/L by luciferase reporter gene assay relative to control; type: ADME, cell-based
T6 sequence (O75469 whole entry): T5 sequence (O75469 whole entry)

[13] = Plasma clearance in mouse; type: ADME, organism-based
Adenosine receptor A2b [14] = biological target: T1, Adenosine receptor A2b; assay: Antagonist activity at recombinant human A2B adenosine receptor expressed in CHO cells after 3 to 4 hrs by luciferase reporter gene assay; type: cell-based

Structure (SMILES)	IC50 (Adenosine receptor A2b [1])	predicted hepatic clearance [5]	Ratio IC50 (Homo sapiens [2])	Ratio IC50 (Homo sapiens [3])	Ratio IC50 (Homo sapiens [4])	further results
CCN(CC)C(=O)c1sc2c(c1N)c(=O)n(C)c(=O)n2C	> 10000 nM	53.3 mL/min/kg	0.62	0.73	0.61	–
CCN(CC(C)(C)O)C(=O)c1sc2c(c1C)c(=O)n(CC)c(=O)n2CCC(F)(F)F	39 nM	35 mL/min/kg	11	19	170	–
COCCn1c(=O)[nH]c(=O)c2c(C)csc21	> 10000 nM	31.7 mL/min/kg	1	1	0.61 to 1	–
COCCn1c(=O)n(CCc2ccccc2)c(=O)c2c(C)c(C(C)(O)C3CC3)sc21 (configuration not stated)	150 nM	66.7 mL/min/kg	2	6	45	–
Cc1[nH]cnc1Cn1c(=O)n(CCc2ccccc2)c(=O)c2c(C)csc21	3400 nM	56.7 mL/min/kg	3	3	2	–
Cc1csc2c1c(=O)n(CCc1ccccc1)c(=O)n2Cc1cnc[nH]1	1300 nM	46.7 mL/min/kg	3	8	5	–
Cc1csc2c1c(=O)n(CCc1ccccc1)c(=O)n2CC1CCCO1 (racemic)	520 nM	–	–	–	–	EC50 (Adenosine receptor A2b [14]): > 10000 nM

Further compounds by falling IC50 (Adenosine receptor A2b [1]), results first:

IC50 (Adenosine receptor A2b [1])	predicted hepatic clearance [5]	Structure (SMILES)	Ratio IC50 (Homo sapiens [2])	Ratio IC50 (Homo sapiens [3])	Ratio IC50 (Homo sapiens [4])	further results
430 nM	65 mL/min/kg	COCCn1c(=O)n(CCc2ccccc2)c(=O)c2c(C)c(C(N)=O)sc21	8	18	16	–
300 nM	66.7 mL/min/kg	COCCn1c(=O)n(CCc2ccccc2)c(=O)c2c(C)csc21	9	37	22	–
180 nM	–	Cc1csc2c1c(=O)n(CCc1ccccc1)c(=O)n2CC1CCCO1 (stereo in doubt; 7)	–	–	–	CLhep predicted [5]: 66.7 mL/min/kg; IC50 (Cytochrome P450 1A2): 6500 nM; IC50 (Cytochrome P450 2C8): 10000 nM; IC50 (Cytochrome P450 2C9): 8300 nM; IC50 (Cytochrome P450 2D6): > 20000 nM; IC50 (Cytochrome P450 3A4 [6]): 16000 nM; TDI (Cytochrome P450 3A4 [7]): Not Active; CLhep predicted [8]: 81.7 mL/min/kg; CLhep predicted [9]: 66.7 mL/min/kg; Papp A→B [10]: 21 ×10⁻⁶ cm/s; efflux ratio [11]: 0.69; MEC [12]: 2 ×10⁻⁶ mol/L; Emax (PXR): 85%; clearance [13]: 43.3 mL/min/kg
73 nM	68.3 mL/min/kg	Cc1csc2c1c(=O)n(CCc1ccccc1F)c(=O)n2CCC(F)(F)F	36	86	91	–
12 nM	58.3 mL/min/kg	COCCn1c(=O)n(CCc2ccccc2)c(=O)c2c(C)c(Cn3ccnc3)sc21	33	120	530	–
